Data from US8669315B2, “Polycarbonate compositions and methods for the manufacture and use thereof” (SABIC Innovative Plastics IP B.V., priority 2011, dated 2014).

What was measured:
[1] = target: recombinant human estradiol receptors (rhER) beta 1 (β1) (Homo sapiens, UniProt Q92731); assay: in vitro competitive binding assay, displacement of [3H]estradiol from rhER beta 1; conditions: highest concentration 2.5×E−4 M
[2] = target: T1, recombinant human estradiol receptors (rhER) alpha (α) (Homo sapiens, UniProt P03372); assay: in vitro competitive binding assay, displacement of [3H]estradiol from rhER alpha; conditions: running text, highest concentration 2.5×E−4 M
T1 sequence (P03372 1-595): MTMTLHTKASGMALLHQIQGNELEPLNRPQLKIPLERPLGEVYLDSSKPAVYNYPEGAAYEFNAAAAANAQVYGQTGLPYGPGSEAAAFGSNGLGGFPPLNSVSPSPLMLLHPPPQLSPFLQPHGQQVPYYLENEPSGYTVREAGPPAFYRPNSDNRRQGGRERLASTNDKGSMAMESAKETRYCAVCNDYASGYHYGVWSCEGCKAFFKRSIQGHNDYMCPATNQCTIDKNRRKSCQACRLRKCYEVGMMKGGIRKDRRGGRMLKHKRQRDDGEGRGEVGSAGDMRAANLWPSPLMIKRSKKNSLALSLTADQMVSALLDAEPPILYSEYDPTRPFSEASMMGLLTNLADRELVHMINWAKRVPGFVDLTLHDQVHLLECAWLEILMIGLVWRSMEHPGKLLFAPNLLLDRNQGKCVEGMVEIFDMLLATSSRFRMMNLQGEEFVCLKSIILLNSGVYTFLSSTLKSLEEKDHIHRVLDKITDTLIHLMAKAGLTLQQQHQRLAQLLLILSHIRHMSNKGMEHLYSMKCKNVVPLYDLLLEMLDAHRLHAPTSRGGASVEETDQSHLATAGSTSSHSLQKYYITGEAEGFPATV

Compound | estradiol binding / displacement at the beta estradiol receptor (in words) ([1]; running text) | estradiol binding / displacement at the alpha estradiol receptor (in words) [2] | also measured
Oc1cccc(O)c1 [Example 5, Resorcinol] | no detectible estradiol displacement | no detectible estradiol displacement | estradiol binding / displacement at the beta estradiol receptor (in words) ([1]; running text, listed as resorcinol): no estradiol binding; estradiol binding / displacement at the alpha estradiol receptor (in words) ([2]; listed as resorcinol): no estradiol binding
Bis Hydroxy Phenyl Menthane [reference compound] | displace estradiol at low concentrations | displace estradiol at low concentrations | –
CC(c1ccccc1)(c1ccc(O)cc1)c1ccc(O)cc1 [D, Bisphenol Acetophenone, reference compound] | – | displace estradiol | –
CC(C)(c1ccc(O)cc1)c1cccc(C(C)(C)c2ccc(O)cc2)c1 [L, Bisphenol M, reference compound] | displace estradiol at low concentrations | displace estradiol at low concentrations | –
O=C1OC(c2ccc(O)cc2)(c2ccc(O)cc2)c2ccccc21 [P, Phenolphthalein, reference compound] | estradiol displacement at low concentration | – | –
Cc1cc(C2(c3ccc(O)c(C)c3)CCCCC2)ccc1O [H, Dimethyl Cyclohexyl Bisphenol, reference compound] | displacement of estradiol | displacement of estradiol | –
O=C1c2ccccc2C(c2ccc(O)cc2)(c2ccc(O)cc2)N1c1ccccc1 [Example 4, N-Phenyl Phenolphthalein Bisphenol] | no detectible estradiol displacement | no detectible estradiol displacement | estradiol binding / displacement at the beta estradiol receptor (in words) ([1]; running text, listed as N-phenyl phenolphthalein bisphenol): no estradiol binding; estradiol binding / displacement at the alpha estradiol receptor (in words) ([2]; listed as N-phenyl phenolphthalein bisphenol): no estradiol binding
Biphenol [Example 7] | no estradiol binding | no displacement | estradiol binding / displacement at the alpha estradiol receptor (in words) ([2]; listed as biphenol): no estradiol binding
Fluorenone Bis o-Cresol [J, reference compound] | displace estradiol at low concentrations | – | –
COC(=O)CCC(C)(c1ccc(O)cc1)c1ccc(O)cc1 [F, Diphenolic Acid Methyl Ester, reference compound] | displace estradiol | displace estradiol | –
CC(C)(c1ccccc1)c1ccc(O)cc1 [B, p-Cumyl Phenol, reference compound] | displace estradiol | displace estradiol | –
Cc1cc(O)ccc1O [Example 9, Methyl Hydroquinone] | no alpha or beta estradiol displacement | – | estradiol binding / displacement at the beta estradiol receptor (in words) ([1]; running text, listed as methyl hydroquinone): no estradiol binding
Oc1ccc(Oc2ccc(O)cc2)cc1 [C, Dihydroxy Diphenyl Ether, reference compound] | displace estradiol | – | –
Tetra Methyl BPA [Example 2] | no detectible estradiol displacement | – | estradiol binding / displacement at the beta estradiol receptor (in words) ([1]; listed as tetra methyl bisphenol-A): no estradiol binding
